Laboratory results published in patent US5089516A, “1-phenyl-3,5-pyrazolidinedione hydroxystyrene compounds which have tyrosine kinase inhibiting activity” (Kanegafuchi Kagaku Kogyo Kabushiki Kaisha, priority 1987, dated 1992).

System: antigen-induced anaphylactic shock death
Experiment: Protecting effect against antigen-induced anaphylactic shock death in actively sensitized guinea pigs
Format: in vivo, male guinea pigs
Settings: Cavia porcellus, 1.5 h, oral, 30 minutes before antigen inhalation
Experimental: (2) Protecting effect against antigen-induced anaphylactic shock death in actively sensitized guinea pigs
Anaphylactic shock death caused by inhalation of antigen was observed according to John P. Devlin Pulmonary and Antiallergic Drugs, John Wiley & Sons, (1985)] employing actively sensitized guinea pigs.
Each 100 mg/kg of body weight ovalbumin dissolved in physiological saline was injected into gluteus and into peritoneal cavity of male guinea pigs weighing 250 to 350 g. Three days later, the animals were further injected intraperitoneally with ovalbumin (100 mg/kg body weight) to conduct booster. Those animals were employed for testing 3 to 4 weeks after the sensitization.
In each group, 4 or more actively sensitized guinea pigs were pretreated by subcutaneously injecting pyrilamine (1 mg/kg body weight) 30 minutes before antigen inhalation to suppress histamine-dependent response and propranolol (1 mg/kg body weight) to enhance the response induced by other than histamine 10 minutes before the antigen inhalation.
The animal was placed in a desiccator with a capacity of about […] and 0.5% aqueous solution of ovalbumin in the state of aerosol was inhaled with ultrasonic type nebulizer for five minutes. Anaphylactic shock death was observed and the animals survived for 90 minutes or more after antigen inhalation were estimated to be protected. All the animals of the control group died due to anaphylactic shock. The compounds of the present invention and therapeutic antiasthmatic agent (tranilast, theophylline) were administered orally 30 minutes before the antigen inhalation.

SMILES | responders at 10 mg/kg [%] | responders at 100 mg/kg [%]
CC(C)c1cc(C=C2SC(NCc3ccc(F)cc3)=NC2=O)cc(C(C)C)c1O [Compound 35] | 50 | 
CC(C)c1cc(C=C2SC(NCc3ccc(S(N)(=O)=O)cc3)=NC2=O)cc(C(C)C)c1O [Compound 41] | 25 | 
CC(C)c1cc(C=C2SC(NCc3ccc(Cl)c(Cl)c3)=NC2=O)cc(C(C)C)c1O [Compound 37] |  | 25
Cc1ccc(CNC2=NC(=O)C(=Cc3cc(C(C)C)c(O)c(C(C)C)c3)S2)cc1 [Compound 39] |  | 25
